According to US7199115B2, “17α-fluorosteroids, pharmaceutical compositions containing 17α-fluorosteroids and a method of making them” (Schering AG, priority 2004, dated 2007):
Read-outs that look alike come from different tables or passages of the source.

Experiments:
pregnancy maintenance = assay: Gestagen activity in pregnancy maintenance test; type: in vivo; conditions: mouse
5α-reductase-Type-2 = target: T1, 5α-reductase-Type-2 (Homo sapiens, UniProt P31213); assay: 5α-reductase-Type-2 activity in genital skin homogenates; type: biochemical; conditions: optimum conditions at pH=5.5
T1 construct: Under optimum conditions at pH=5.5 in genital skin homogenates; from tissue; host or cells: genital skin homogenates
T1 sequence (P31213 1-254): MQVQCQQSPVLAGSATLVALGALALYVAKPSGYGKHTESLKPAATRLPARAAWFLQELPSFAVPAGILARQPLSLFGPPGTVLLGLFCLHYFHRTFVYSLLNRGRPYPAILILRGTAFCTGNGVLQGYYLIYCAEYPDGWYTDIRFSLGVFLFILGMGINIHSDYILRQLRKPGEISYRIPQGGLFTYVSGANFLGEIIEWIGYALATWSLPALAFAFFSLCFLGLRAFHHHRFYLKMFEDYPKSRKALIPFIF
Description: Subsequently experimental data for progesterone receptor binding, 5α-reductase-type-2 activity in genital skin homogenates and in vivo data in the case of the exemplary compound of the invention, (E)-17α-fluoro-3-oxo-estra-4-en-17β-carbaldehyde oxime, are reported here.

PR-B = target: T2, PR-B (Homo sapiens, UniProt P06401); assay: PR-B antagonisms and agonisms; type: cell-based
T2 sequence (P06401 1-933): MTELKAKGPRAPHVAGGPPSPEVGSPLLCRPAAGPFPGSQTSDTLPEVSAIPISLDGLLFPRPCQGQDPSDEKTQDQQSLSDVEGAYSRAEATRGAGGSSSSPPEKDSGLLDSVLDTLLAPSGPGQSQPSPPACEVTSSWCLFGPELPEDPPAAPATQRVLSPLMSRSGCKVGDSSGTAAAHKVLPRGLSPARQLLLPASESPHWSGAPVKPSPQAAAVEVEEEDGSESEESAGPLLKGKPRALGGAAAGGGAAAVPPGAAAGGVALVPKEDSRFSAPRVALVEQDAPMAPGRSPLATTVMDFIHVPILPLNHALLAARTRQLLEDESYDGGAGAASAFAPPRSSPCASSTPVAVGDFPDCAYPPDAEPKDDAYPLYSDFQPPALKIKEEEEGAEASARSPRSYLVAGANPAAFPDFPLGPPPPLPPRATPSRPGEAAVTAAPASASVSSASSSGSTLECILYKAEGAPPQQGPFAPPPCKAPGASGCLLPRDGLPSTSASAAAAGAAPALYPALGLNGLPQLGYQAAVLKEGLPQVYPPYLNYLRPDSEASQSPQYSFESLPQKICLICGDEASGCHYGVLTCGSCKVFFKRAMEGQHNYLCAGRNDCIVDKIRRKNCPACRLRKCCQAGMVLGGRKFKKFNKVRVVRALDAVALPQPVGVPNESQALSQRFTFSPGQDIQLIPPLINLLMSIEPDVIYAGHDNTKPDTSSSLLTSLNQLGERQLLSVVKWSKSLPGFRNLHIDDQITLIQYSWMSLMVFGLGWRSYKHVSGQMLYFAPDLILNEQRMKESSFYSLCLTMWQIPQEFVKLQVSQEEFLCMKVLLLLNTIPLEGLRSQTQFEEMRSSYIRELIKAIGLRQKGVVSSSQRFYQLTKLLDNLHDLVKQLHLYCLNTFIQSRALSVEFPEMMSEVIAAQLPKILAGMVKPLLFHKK

Progesterone Receptor = target: T3, Progesterone Receptor (Oryctolagus cuniculus, UniProt P06186); assay: Binding to progesterone receptor, uterus cytosol, tracer 3H-ORG 2058; conditions: rabbit uterus cytosol, 0–4° C., 18 h, Progesterone=100%
T3 construct: Biological material: Uterus cytosol, rabbit, pressed; from tissue; host or cells: rabbit uterus cytosol
T3 sequence (P06186 1-930): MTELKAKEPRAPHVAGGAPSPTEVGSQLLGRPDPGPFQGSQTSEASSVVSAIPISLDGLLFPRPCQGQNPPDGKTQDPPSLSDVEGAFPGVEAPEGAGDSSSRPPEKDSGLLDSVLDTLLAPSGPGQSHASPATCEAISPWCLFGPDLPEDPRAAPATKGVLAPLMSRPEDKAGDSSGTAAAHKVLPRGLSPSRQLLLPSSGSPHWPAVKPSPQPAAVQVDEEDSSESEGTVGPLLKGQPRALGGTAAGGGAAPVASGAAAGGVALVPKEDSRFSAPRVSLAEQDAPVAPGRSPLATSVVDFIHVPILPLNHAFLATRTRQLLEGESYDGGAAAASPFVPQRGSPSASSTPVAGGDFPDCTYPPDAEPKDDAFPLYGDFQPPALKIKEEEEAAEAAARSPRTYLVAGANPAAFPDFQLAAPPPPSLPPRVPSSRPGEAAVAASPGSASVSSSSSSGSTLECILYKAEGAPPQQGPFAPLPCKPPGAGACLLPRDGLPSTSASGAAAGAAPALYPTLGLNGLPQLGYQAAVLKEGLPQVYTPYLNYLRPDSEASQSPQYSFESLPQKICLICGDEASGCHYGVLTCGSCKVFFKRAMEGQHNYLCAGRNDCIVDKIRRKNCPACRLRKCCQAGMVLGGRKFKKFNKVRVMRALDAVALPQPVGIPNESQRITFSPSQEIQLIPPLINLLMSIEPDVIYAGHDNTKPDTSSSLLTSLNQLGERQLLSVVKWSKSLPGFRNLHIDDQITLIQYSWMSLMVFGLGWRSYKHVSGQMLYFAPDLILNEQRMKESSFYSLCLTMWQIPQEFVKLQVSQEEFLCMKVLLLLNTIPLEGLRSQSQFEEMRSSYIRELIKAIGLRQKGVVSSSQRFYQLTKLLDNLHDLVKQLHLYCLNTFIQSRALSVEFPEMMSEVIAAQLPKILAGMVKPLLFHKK
Description: Binding of Compound I to Progesterone Receptor

Compound	Rate of Maintained Gravidity (pregnancy maintenance; dosage 0.003 Mg/animal/day)	Rate of Maintained Gravidity (pregnancy maintenance; dosage 0.03 Mg/animal/day)	Rate of Maintained Gravidity (pregnancy maintenance; dosage 0.3 Mg/animal/day)	IC50 (5α-reductase-Type-2) [nM]	IC50 (PR-B; PR-B agonism, read-out: Agonism IC50) [nM]	IC50 (PR-B; PR-B antagonism, read-out: Antagonism IC50) [nM]	Relative Binding affinity RBA (Progesterone Receptor) [%]
C[C@]12CCC3C4CCC(=O)C=C4CCC3C1CC[C@]2(F)/C=N/O (stereo partly drawn) [Compound 7, (E)-17α-fluoro-3-oxo-estra-4-en-17β-carbaldehyde oxime]	0/3	2/2	3/3	245	0.25	0.339	
CC(=O)[C@H]1CC[C@H]2[C@@H]3CCC4=CC(=O)CC[C@]4(C)[C@H]3CC[C@]12C [Progesterone]							100
